Data as given in ChEMBL document CHEMBL1201862, “PubChem BioAssay data set” (2004).
“And” between values parts separate entries of the source, which are not always exact repeats. Identical values can stand only once.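 Growth conditions: 96-well plates. Treatment: test compound, 48 hours, 5 concentrations. Analysis: linear interpolation between bracketing concentrations; unreached endpoints set to highest concentration. At the GI50, growth is halved.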 The source made the active and inactive calls. No stated cut-off is given here; in the data, active = GI50 up to about 1.1 µM and inactive = higher.

What was measured:
Test in all cases: NCI-60 cell line screen, 48 h
[1] = system: DMS-273
[2] = system: SW-620
[3] = system: SF-295
[4] = system: M19-MEL
[5] = system: SK-MEL-28
[6] = system: SNB-75
[7] = system: Malme-3M
[8] = system: KM12
[9] = system: DLD-1
[10] = system: UACC-257
[11] = system: UACC-62
[12] = system: RXF 631
[13] = system: NCI-H23
[14] = system: A549
[15] = system: NCI-H226
[16] = system: SK-MEL-5
[17] = system: UO-31
[18] = system: MOLT-4
[19] = system: CAKI-1
[20] = system: LOX IMVI
[21] = system: RPMI-8226
[22] = system: DMS-114
[23] = system: NCI-H460
[24] = system: SNB-78
[25] = system: HT-29
[26] = system: SK-MEL-2
[27] = system: RXF 393
[28] = system: HCT-15
[29] = system: COLO 205
[30] = system: A498
[31] = system: HCT-116
[32] = system: OVCAR-5
[33] = system: KM-20L2
[34] = system: OVCAR-8
[35] = system: LXFL 529
[36] = system: HCC 2998
[37] = system: XF498
[38] = system: OVCAR-3
[39] = system: IGROV-1
[40] = system: U-251
[41] = system: SF-268
[42] = system: SR
[43] = system: M14
[44] = system: SNB-19
[45] = system: TK-10
[46] = system: NCI-H522
[47] = system: SN12C
[48] = system: HOP-62
[49] = system: 786-0
[50] = system: K562
[51] = system: OVCAR-4
[52] = system: SF-539
[53] = system: ACHN
[54] = system: EKVX
[55] = system: CCRF-CEM
[56] = system: SK-OV-3
[57] = system: HL-60
[58] = system: HOP-92

## CCOC(=O)[C@H]1Nc2ccccc2C2c3ccccc3CC21 (some centres undefined)
[1]
  GI50: 74 µM (inactive)
[2]
  GI50: 36.8 µM (inactive)
[3]
  GI50: 49 µM (inactive)
[4]
  GI50: 74.3 µM (inactive)
[5]
  GI50: 34.2 µM (inactive)
[6]
  GI50: 39.5 µM (inactive)
[7]
  GI50: > 100 µM (inactive)
[8]
  GI50: 71 µM (inactive)
[9]
  GI50: 51.4 µM (inactive)
[10]
  GI50: 22 µM (inactive)
[11]
  GI50: 53.3 µM (inactive)
[12]
  GI50: > 100 µM (inactive)
[13]
  GI50: 79.6 µM (inactive)
[14]
  GI50: 78.3 µM (inactive)
[15]
  GI50: > 100 µM (inactive)
[16]
  GI50: 21.8 µM (inactive)
[17]
  GI50: 68.4 µM (inactive)
[18]
  GI50: 24.4 µM (inactive)
[19]
  GI50: > 100 µM (inactive)
[20]
  GI50: > 100 µM (inactive)
[21]
  GI50: 37.9 µM (inactive)
[22]
  GI50: 88.1 µM (inactive)
[23]
  GI50: 38.6 µM (inactive)
[24]
  GI50: > 100 µM (inactive)
[25]
  GI50: 19 µM (inactive)
[26]
  GI50: > 100 µM (inactive)
[27]
  GI50: 3.3 µM (inactive)
[28]
  GI50: 49 µM
[29]
  GI50: 64.4 µM (inactive)
[30]
  GI50: 24.9 µM (inactive)
[31]
  GI50: 41.5 µM (inactive)
[32]
  GI50: 31.7 µM (inactive)
[33]
  GI50: 39.4 µM (inactive)
[34]
  GI50: 48.5 µM (inactive)
[35]
  GI50: 41.6 µM (inactive)
[36]
  GI50: 48.3 µM (inactive)
[37]
  GI50: > 100 µM (inactive)
[38]
  GI50: 29.6 µM (inactive)
[39]
  GI50: > 100 µM (inactive)
[40]
  GI50: > 100 µM (inactive)
[41]
  GI50: > 100 µM (inactive)
[42]
  GI50: 27.4 µM (inactive)
[43]
  GI50: > 100 µM (inactive)
[44]
  GI50: > 100 µM (inactive)
[45]
  GI50: > 100 µM (inactive)
[46]
  GI50: 16.4 µM (inactive)
[47]
  GI50: 29.4 µM (inactive)
[48]
  GI50: > 100 µM (inactive)
[49]
  GI50: > 100 µM (inactive)
[50]
  GI50: 38.9 µM (inactive)
[51]
  GI50: 38.2 µM (inactive)
[52]
  GI50: > 100 µM (inactive)
[53]
  GI50: > 100 µM (inactive)

## CC1C[C@@H]2C(=O)NC(=O)[C@@H]2c2c1c1ccccc1n2C (some centres undefined)
[1]
  GI50: > 100 µM (inactive)
[2]
  GI50: > 100 µM (inactive)
[3]
  GI50: > 100 µM (inactive)
[4]
  GI50: > 100 µM (inactive)
[5]
  GI50: > 100 µM (inactive)
[54]
  GI50: > 100 µM (inactive)
[6]
  GI50: > 100 µM (inactive)
[7]
  GI50: > 100 µM (inactive)
[8]
  GI50: > 100 µM (inactive)
[9]
  GI50: > 100 µM (inactive)
[10]
  GI50: > 100 µM (inactive)
[11]
  GI50: > 100 µM (inactive)
[12]
  GI50: > 100 µM (inactive)
[13]
  GI50: > 100 µM (inactive)
[14]
  GI50: > 100 µM (inactive)
[15]
  GI50: > 100 µM (inactive)
[16]
  GI50: > 100 µM (inactive)
[17]
  GI50: > 100 µM (inactive)
[18]
  GI50: > 100 µM (inactive)
[19]
  GI50: > 100 µM (inactive)
[20]
  GI50: > 100 µM (inactive)
[21]
  GI50: > 100 µM (inactive)
[22]
  GI50: > 100 µM (inactive)
[23]
  GI50: > 100 µM (inactive)
[24]
  GI50: > 100 µM (inactive)
[25]
  GI50: > 100 µM (inactive)
[55]
  GI50: 97.9 µM (inactive)
[26]
  GI50: > 100 µM (inactive)
[27]
  GI50: > 100 µM (inactive)
[28]
  GI50: > 100 µM
[29]
  GI50: > 100 µM (inactive)
[30]
  GI50: > 100 µM (inactive)
[33]
  GI50: > 100 µM (inactive)
[34]
  GI50: > 100 µM (inactive)
[35]
  GI50: > 100 µM (inactive)
[36]
  GI50: > 100 µM (inactive)
[37]
  GI50: > 100 µM (inactive)
[38]
  GI50: > 100 µM (inactive)
[39]
  GI50: > 100 µM (inactive)
[40]
  GI50: > 100 µM (inactive)
[41]
  GI50: > 100 µM (inactive)
[56]
  GI50: > 100 µM (inactive)
[43]
  GI50: > 100 µM (inactive)
[57]
  GI50: > 100 µM (inactive)
[44]
  GI50: > 100 µM (inactive)
[45]
  GI50: > 100 µM (inactive)
[46]
  GI50: > 100 µM (inactive)
[47]
  GI50: > 100 µM (inactive)
[58]
  GI50: > 100 µM (inactive)
[48]
  GI50: > 100 µM (inactive)
[49]
  GI50: > 100 µM (inactive)
[50]
  GI50: > 100 µM (inactive)
[52]
  GI50: > 100 µM (inactive)

## Cc1cc(Cl)cc2c1NC(=O)C2(O)C(C(=O)c1ccccc1)c1ccccc1 (centres undefined)
[1]
  GI50: 55.8 µM (inactive)
[2]
  GI50: 44.7 µM (inactive) and 76 µM (inactive)
[3]
  GI50: 45.7 µM (inactive) and 67.8 µM (inactive)
[4]
  GI50: 3.4 µM (inactive)
[54]
  GI50: 49.8 µM (inactive) and 67.8 µM (inactive)
[6]
  GI50: 24.7 µM (inactive) and 21.7 µM (inactive)
[8]
  GI50: 47.6 µM (inactive) and 60.4 µM (inactive)
[9]
  GI50: 53.8 µM (inactive) and 42.3 µM (inactive)
[11]
  GI50: 17.3 µM (inactive)
[12]
  GI50: 37.8 µM (inactive) and 70.1 µM (inactive)
[13]
  GI50: 52.5 µM (inactive) and 38.6 µM (inactive)
[15]
  GI50: 36.4 µM (inactive) and 27.3 µM (inactive)
[16]
  GI50: 21.2 µM (inactive)
[18]
  GI50: 16 µM (inactive)
[20]
  GI50: 19.3 µM (inactive) and 33 µM (inactive)
[21]
  GI50: 17.4 µM (inactive) and 22.9 µM (inactive)
[22]
  GI50: 22.9 µM (inactive) and 25.6 µM (inactive)
[24]
  GI50: 41.8 µM (inactive) and 56.6 µM (inactive)
[25]
  GI50: 35.2 µM (inactive) and 39.8 µM (inactive)
[55]
  GI50: 26.7 µM (inactive)
[26]
  GI50: 44.8 µM (inactive) and 32.3 µM (inactive)
[28]
  GI50: 71.3 µM and 46.7 µM
[30]
  GI50: 27.7 µM (inactive)
[31]
  GI50: 23.4 µM (inactive)
[32]
  GI50: > 100 µM (inactive)
[33]
  GI50: 88.9 µM (inactive)
[36]
  GI50: 23.9 µM (inactive) and 29.9 µM (inactive)
[37]
  GI50: 36.4 µM (inactive) and 28.7 µM (inactive)
[39]
  GI50: 26.2 µM (inactive)
[56]
  GI50: 56.6 µM (inactive)
[57]
  GI50: 20.1 µM (inactive)
[44]
  GI50: 77.6 µM (inactive)
[45]
  GI50: > 100 µM (inactive) and 84.7 µM (inactive)
[46]
  GI50: 36.5 µM (inactive)
[48]
  GI50: 82 µM (inactive) and 47.3 µM (inactive)
[50]
  GI50: 33.5 µM (inactive)
[51]
  GI50: 20.4 µM (inactive) and 35.5 µM (inactive)
[52]
  GI50: 21 µM (inactive)
